Assay results as given in patent US10093623B2, “Cyclic amides as MetAP-2 inhibitors” (MERCK PATENT GmbH, priority 2012, dated 2018).
pIC50: −log10 of the molar value.

molecular target: MetAP-2 (Homo sapiens, UniProt P50579); assay: MetAP-2 activity measurement (coupled enzymatic reactions, Met-Arg-Ser substrate, dianisidine detection at 450 nm); assay type: biochemical; details: Inhibition of MetAP-2; read-out: IC50 enzyme
In short: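 Rate read from the linear part of the 450 nm absorbance trace. Dianisidine oxidation by peroxidase reports H2O2 made when amino acid oxidase acts on methionine cleaved from MAS tripeptide, one mol dye per mol Met; extinction coefficient gives molar activity.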

MetAP-2, sequence (P50579 whole entry, species assumed): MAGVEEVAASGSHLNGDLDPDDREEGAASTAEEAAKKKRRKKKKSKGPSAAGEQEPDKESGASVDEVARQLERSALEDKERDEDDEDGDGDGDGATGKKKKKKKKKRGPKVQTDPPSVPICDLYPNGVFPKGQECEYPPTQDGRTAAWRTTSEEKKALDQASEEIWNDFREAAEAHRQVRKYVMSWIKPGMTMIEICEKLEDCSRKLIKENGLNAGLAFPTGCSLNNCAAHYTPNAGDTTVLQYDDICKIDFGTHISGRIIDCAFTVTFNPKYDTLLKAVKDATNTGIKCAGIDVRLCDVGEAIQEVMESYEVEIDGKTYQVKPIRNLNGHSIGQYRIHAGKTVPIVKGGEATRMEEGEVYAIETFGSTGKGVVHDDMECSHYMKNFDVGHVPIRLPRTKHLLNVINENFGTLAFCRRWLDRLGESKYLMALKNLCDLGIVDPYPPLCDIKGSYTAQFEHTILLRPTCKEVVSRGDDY

Row | Compound | pIC50
1 | O=C1CCc2cc(NC(=O)C3CCN(c4ccc5c(c4)CCC(=O)N5)C3=O)ccc2N1 (stereo not shown) [A158, N-(2-Oxo-1,2,3,4-tetrahydro-quinolin-6-yl)-2-oxo-1-(2-oxo-1,2,3,4-tetrahydroquinolin-6-yl)-pyrrolidine-3-carboxamide] | < 5.00
2 | NC(=O)c1cccc(N2CC[C@@](O)(C(=O)NCCc3cc(F)cc(Cl)c3)C2=O)c1 [A159, N-[2-(3-Chloro-5-fluorophenyl)-ethyl]-(R)-1-(3-carbamoyl-phenyl)-3-hydroxy-2-oxo-pyrrolidine-3-carboxamide] | 5.00 to 6.00
3 | CNC(=O)c1cccc(N2CC[C@](O)(C(=O)NCc3cc(F)cc(Cl)c3)C2=O)c1 [A161, N-(3-Chloro-5-fluorobenzyl)-(S)-3-hydroxy-1-(3-methyl-carbamoylphenyl)-2-oxo-pyrrolidine-3-carboxamide] | 6.00 to 8.00
4 | CNC(=O)c1cccc(N2CC[C@@](O)(C(=O)NCc3cc(F)cc(Cl)c3)C2=O)c1 [A162, N-(3-Chloro-5-fluorobenzyl)-(R)-3-hydroxy-1-(3-methyl-carbamoylphenyl)-2-oxo-pyrrolidine-3-carboxamide] | < 5.00
5 | O=C(NC1CCC1)c1cccc(N2CC[C@](O)(C(=O)NCc3cc(F)cc(Cl)c3)C2=O)c1 [A163, N-(3-Chloro-5-fluorobenzyl)-(S)-1-(3-cyclobutylcarbamoyl-phenyl)-3-hydroxy-2-oxo-pyrrolidine-3-carboxamide] | 6.00 to 8.00
6 | O=C(NC1CCC1)c1cccc(N2CC[C@@](O)(C(=O)NCc3cc(F)cc(Cl)c3)C2=O)c1 [A164, N-(3-Chloro-5-fluorobenzyl)-(R)-1-(3-cyclobutylcarbamoyl-phenyl)-3-hydroxy-2-oxo-pyrrolidine-3-carboxamide] | < 5.00
7 | CN(c1cccc(N2CC[C@](O)(C(=O)NCc3cc(F)cc(Cl)c3)C2=O)c1)S(C)(=O)=O [A165, N-(3-Chloro-5-fluorobenzyl)-(S)-3-hydroxy-1-[3-(methane-sulfonylmethylamino)phenyl]-2-oxopyrrolidine-3-carboxamide] | 6.00 to 8.00
8 | CN(c1cccc(N2CC[C@@](O)(C(=O)NCc3cc(F)cc(Cl)c3)C2=O)c1)S(C)(=O)=O [A166, N-(3-Chloro-5-fluorobenzyl)-(R)-3-hydroxy-1-[3-(methane-sulfonylmethylamino)phenyl]-2-oxopyrrolidine-3-carboxamide] | 5.00 to 6.00
9 | O=C1COCCN1c1ccc(N2CCC(O)(C(=O)NCc3cc(F)cc(Cl)c3)C2=O)cn1 (stereo not shown) [A167, N-(3-Chloro-5-fluorobenzyl)-3-hydroxy-2-oxo-1-[6-(3-oxo-morpholin-4-yl)-pyridin-3-yl]-pyrrolidine-3-carboxamide] | 6.00 to 8.00
10 | O=C(NCCc1cc(F)cc(Cl)c1)C1(O)CCN(c2ccc3[nH]ncc3c2)C1=O (stereo not shown) [A168] | 6.00 to 8.00
11 | O=C(NCc1cc(F)cc(Cl)c1)C1(O)CCN(c2cnn(-c3ccccc3)c2)C1=O (stereo not shown) [A169, N-(3-Chloro-5-fluorobenzyl)-3-hydroxy-2-oxo-1-(1-phenyl-1H-pyrazol-4-yl)pyrrolidine-3-carboxamide] | 6.00 to 8.00
12 | CC(C)(C)OC(=O)N1CCC(n2cc(N3CCC(O)(C(=O)NCc4cc(F)cc(Cl)c4)C3=O)cn2)CC1 (stereo not shown) [A170, tert-Butyl 4-{4-[3-(3-chloro-5-fluorobenzylcarbamoyl)-3-hydroxy-2-oxopyrrolidin-1-yl]-pyrazol-1-yl}-piperidine-1-carboxylate] | 6.00 to 8.00
13 | CCC(=O)Nc1ccc(N2CC[C@](O)(C(=O)NCc3cc(F)cc(Cl)c3)C2=O)cn1 [A171, N-(3-Chloro-5-fluorobenzyl)-(S)-3-hydroxy-2-oxo-1-(6-propionylaminopyridin-3-yl)-pyrrolidine-3-carboxamide] | 6.00 to 8.00
14 | CCC(=O)Nc1ccc(N2CC[C@@](O)(C(=O)NCc3cc(F)cc(Cl)c3)C2=O)cn1 [A172, N-(3-Chloro-5-fluorobenzyl)-(R)-3-hydroxy-2-oxo-1-(6-propionylaminopyridin-3-yl)-pyrrolidine-3-carboxamide] | 5.00 to 6.00
15 | O=C(NCc1cc(F)cc(Cl)c1)C1(O)CCN(c2ccc(N3CCOCC3)nc2)C1=O (stereo not shown) [A173, N-(3-Chloro-5-fluorobenzyl)-3-hydroxy-1-(6-morpholin-4-yl-pyridin-3-yl)-2-oxopyrrolidine-3-carboxamide] | 6.00 to 8.00
16 | CC(=O)Nc1ccc(N2CCC(O)(C(=O)NCCc3cccc(F)c3)C2=O)cn1 (stereo not shown) [A174, N-[2-(3-Fluorophenyl)ethyl]-1-(6-acetylaminopyridin-3-yl)-3-hydroxy-2-oxopyrrolidine-3-carboxamide] | 6.00 to 8.00
17 | CC(=O)Nc1ccc(N2CCC(O)(C(=O)NCCc3ccccc3F)C2=O)cn1 (stereo not shown) [A175, N-[2-(2-Fluorophenyl)ethyl]-1-(6-acetylaminopyridin-3-yl)-3-hydroxy-2-oxopyrrolidine-3-carboxamide] | 6.00 to 8.00
18 | CC(=O)Nc1ccc(N2CCC(O)(C(=O)NCc3cc(F)cc(F)c3)C2=O)cn1 (stereo not shown) [A176, N-(3,5-Difluorobenzyl)-1-(6-acetylaminopyridin-3-yl)-3-hydroxy-2-oxopyrrolidine-3-carboxamide] | 6.00 to 8.00
19 | NC(=O)c1cccc(N2CCC(O)(C(=O)NCCc3cccc(F)c3)C2=O)c1 (stereo not shown) [A177, N-[2-(3-Fluorophenyl)ethyl]-1-(3-carbamoylphenyl)-3-hydroxy-2-oxopyrrolidine-3-carboxamide] | 6.00 to 8.00

Row | Compound | pIC50
20 | NC(=O)c1cccc(N2CCC(O)(C(=O)NCc3cc(F)cc(F)c3)C2=O)c1 (stereo not shown) [A178, N-(3,5-Difluorobenzyl)-1-(3-carbamoylphenyl)-3-hydroxy-2-oxopyrrolidine-3-carboxamide] | 6.00 to 8.00
21 | NC(=O)c1cccc(N2CCC(O)(C(=O)NCCc3ccccc3F)C2=O)c1 (stereo not shown) [A179, N-[2-(2-Fluorophenyl)ethyl]-1-(3-carbamoylphenyl)-3-hydroxy-2-oxopyrrolidine-3-carboxamide] | 6.00 to 8.00
22 | O=C(NCc1cc(F)cc(Cl)c1)C1(O)CCN(c2cnn(C3CCNCC3)c2)C1=O (stereo not shown) [A180, N-(3-Chloro-5-fluorobenzyl)-3-hydroxy-2-oxo-1-(1-piperidin-4-yl-1H-pyrazol-4-yl)pyrrolidine-3-carboxamide] | 6.00 to 8.00
23 | COc1ccc(CN2CC[C@](O)(C(=O)NCc3cc(F)cc(Cl)c3)C2=O)cc1 [A181, N-(3-Chloro-5-fluorobenzyl)-(S)-3-hydroxy-1-(4-methoxybenzyl)-2-oxopyrrolidine-3-carboxamide] | 6.00 to 8.00
24 | COc1ccc(CN2CC[C@@](O)(C(=O)NCc3cc(F)cc(Cl)c3)C2=O)cc1 [A182, N-(3-Chloro-5-fluorobenzyl)-(R)-3-hydroxy-1-(4-methoxybenzyl)-2-oxopyrrolidine-3-carboxamide] | < 5.00
25 | O=C1CCc2cc(N3CCC(O)(C(=O)NCCc4cccc(F)c4)C3=O)ccc2N1 (stereo not shown) [A183, N-[2-(3-Fluorophenyl)ethyl]-3-hydroxy-2-oxo-1-(2-oxo-1,2,3,4-tetrahydroquinolin-6-yl)-pyrrolidine-3-carboxamide] | 6.00 to 8.00
26 | O=C1CCc2cc(N3CCC(O)(C(=O)NCCc4ccccc4F)C3=O)ccc2N1 (stereo not shown) [A184, N-[2-(2-Fluorophenyl)ethyl]-3-hydroxy-2-oxo-1-(2-oxo-1,2,3,4-tetrahydroquinolin-6-yl)-pyrrolidine-3-carboxamide] | 6.00 to 8.00
27 | CC(=O)Nc1ccc(N2CCC(O)(C(=O)NCc3cccc(F)c3Cl)C2=O)cn1 (stereo not shown) [A186, N-(2-Chloro-3-fluorobenzyl)-1-(6-acetylaminopyridin-3-yl)-3-hydroxy-2-oxopyrrolidine-3-carboxamide] | 6.00 to 8.00
28 | O=C(CN1CCC(O)(C(=O)NCc2cc(F)cc(Cl)c2)C1=O)Nc1ccccc1 (stereo not shown) [A187, N-(3-Chloro-5-fluorobenzyl)-3-hydroxy-2-oxo-1-phenyl-carbamoylmethylpyrrolidine-3-carboxamide] | 5.00 to 6.00
29 | CC(=O)Nc1ccc(N2CCC(O)(C(=O)NCCc3cc(F)cc(F)c3)C2=O)cn1 (stereo not shown) [A188, N-[2-(3,5-Difluorophenyl)ethyl]-1-(6-acetylaminopyridin-3-yl)-3-hydroxy-2-oxopyrrolidine-3-carboxamide] | 6.00 to 8.00
30 | O=C(NCCc1cc(F)cc(Cl)c1)[C@@]1(O)CCN(c2ccc3[nH]ncc3c2)C1=O [A191, N-[2-(3-Chloro-5-fluorophenyl)-ethyl]-(S)-3-hydroxy-1-(1H-indazol-5-yl)-2-oxopyrrolidine-3-carboxamide] | 6.00 to 8.00
31 | O=C(NCCc1cc(F)cc(Cl)c1)[C@]1(O)CCN(c2ccc3[nH]ncc3c2)C1=O [A192, N-[2-(3-Chloro-5-fluorophenyl)-ethyl]-(R)-3-hydroxy-1-(1H-indazol-5-yl)-2-oxopyrrolidine-3-carboxamide] | 5.00 to 6.00
32 | NC(=O)c1cccc(N2CCC(O)(C(=O)NCc3cccc(F)c3Cl)C2=O)c1 (stereo not shown) [A193, N-(2-Chloro-3-fluorobenzyl)-1-(3-carbamoylphenyl)-3-hydroxy-2-oxopyrrolidine-3-carboxamide] | 6.00 to 8.00
33 | CCNC(=O)c1cc2cc(N3CC[C@](O)(C(=O)NCc4cc(F)cc(Cl)c4)C3=O)ccc2o1 [A194, N-(3-Chloro-5-fluorobenzyl)-(S)-1-(2-ethylcarbamoylbenzofuran-5-yl)-3-hydroxy-2-oxopyrrolidine-3-carboxamide] | 6.00 to 8.00
34 | CCNC(=O)c1cc2cc(N3CC[C@@](O)(C(=O)NCc4cc(F)cc(Cl)c4)C3=O)ccc2o1 [A195, N-(3-Chloro-5-fluorobenzyl)-(R)-1-(2-ethylcarbamoylbenzofuran-5-yl)-3-hydroxy-2-oxopyrrolidine-3-carboxamide] | < 5.00
35 | O=C1CCc2cc(N3CCC(O)(C(=O)NCc4cccc(F)c4Cl)C3=O)ccc2N1 (stereo not shown) [A196, N-(2-Chloro-3-fluorobenzyl)-3-hydroxy-2-oxo-1-(2-oxo-1,2,3,4-tetrahydroquinolin-6-yl)-pyrrolidine-3-carboxamide] | 6.00 to 8.00
36 | O=C1COc2cc(N3CC[C@](O)(C(=O)NCc4cc(F)cc(Cl)c4)C3=O)ccc2N1 [A197, N-(3-Chloro-5-fluorobenzyl)-(S)-3-hydroxy-2-oxo-1-(3-oxo-3,4-dihydro-2H-benzo-1,4-oxazin-7-yl)pyrrolidine-3-carboxamide] | 6.00 to 8.00
37 | O=C1COc2cc(N3CC[C@@](O)(C(=O)NCc4cc(F)cc(Cl)c4)C3=O)ccc2N1 [A198, N-(3-Chloro-5-fluorobenzyl)-(R)-3-hydroxy-2-oxo-1-(3-oxo-3,4-dihydro-2H-benzo-1,4-oxazin-7-yl)pyrrolidine-3-carboxamide] | < 5.00
